Paper PMC9299503, “Catalytic Control of Spiroketal Formation in Rubromycin Polyketide Biosynthesis” (Angewandte Chemie (International Ed. in English), 2021)

Columns and labels:
[1] = target: T1, GrhO5 (Streptomyces sp. JP95, UniProt Q8KSX7); assay: X-ray crystal structure, […] Å; format: binding; details: ligand-free acceptor state, FAD in OUT
T1 construct: crystallised; domains I-III, residues 1-537 described; construct details only in supplement
T1 sequence (Q8KSX7 1-537): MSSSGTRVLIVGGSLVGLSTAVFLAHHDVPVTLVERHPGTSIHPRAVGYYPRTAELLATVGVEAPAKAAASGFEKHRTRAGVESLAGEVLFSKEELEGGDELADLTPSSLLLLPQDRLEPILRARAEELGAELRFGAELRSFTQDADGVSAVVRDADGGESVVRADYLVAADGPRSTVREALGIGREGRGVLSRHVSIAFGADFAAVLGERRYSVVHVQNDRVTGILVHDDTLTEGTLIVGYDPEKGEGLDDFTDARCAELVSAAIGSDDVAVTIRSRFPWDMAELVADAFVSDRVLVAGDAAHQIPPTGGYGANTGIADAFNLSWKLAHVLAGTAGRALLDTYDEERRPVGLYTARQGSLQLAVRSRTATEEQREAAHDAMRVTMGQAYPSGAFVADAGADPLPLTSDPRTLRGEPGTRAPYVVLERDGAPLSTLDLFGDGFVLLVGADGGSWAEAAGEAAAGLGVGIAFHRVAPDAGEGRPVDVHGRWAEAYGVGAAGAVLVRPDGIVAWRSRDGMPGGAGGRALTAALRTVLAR

[2] = target: T1, GrhO5; assay: X-ray crystal structure, crystals soaked with […]; format: binding; details: FAD in OUT, reducible state; bound ligand may be 3 or its reduced form 5 (dihydrocollinone)

SMILES | X-ray crystal structure, 1.75 Å [1] | X-ray crystal structure, crystals soaked with 3 [2]
Cc1cc2nc3c(=O)[nH]c(=O)nc-3n(C[C@H](O)[C@H](O)[C@H](O)COP(=O)(O)OP(=O)(O)OC[C@H]3O[C@@H](n4cnc5c(N)ncnc54)[C@H](O)[C@@H]3O)c2cc1C [FAD] | domains I and II are essential for FAD‐ and substrate binding, respectively | –
COc1cc(=O)c2c(=O)c3c(c(=O)c=2c1=O)=C(O)[C@@]1(O)c2c(cc4cc(C)oc(=O)c4c2O)CC[C@@]1(O)C=3O [compound 3, collinone] | – | revealed clear electron density in the open, solvent‐exposed substrate‐binding site
